Measured values as given in patent US20240319202A1, “METHOD FOR EVALUATING AGGREGATION STATE OF AGGREGATIVE PROTEIN” (HAMAMATSU PHOTONICS K.K., priority 2023, published 2024).

Tests used:
lysozyme = molecular target: T1, lysozyme (Gallus gallus, UniProt P00698); assay: Evaluation of aggregation state of heat-denatured lysozyme using light-absorption/fluorescence characteristics of a xanthene dye as index; details: lysozyme 7 μM, dye 1 μM, heat-stirred at 60° C.
T1 construct: purchased FUJIFILM Wako Pure Chemical Corporation
Protocol: 40 mg of lysozyme (manufactured by FUJIFILM Wako Pure Chemical Corporation) was added to 2 mL of an aqueous solution of 25 mM of hydrochloric acid and 100 mM of sodium chloride, and dissolved by being left to stand. The obtained lysozyme solution was heat-stirred at 200 rpm at 60° C. to cause heat denaturation of the lysozyme, thereby starting the aggregation reaction of the lysozyme. At 0, 10, 20, 25, 30, 35, 40, 45, 50, 60, 70, 80, and 90 minutes after starting heat-stirring, each of 100 μL of the lysozyme solution was extracted and ice-cooled. The ice-cooled lysozyme solution, and rose bengal (manufactured by FUJIFILM Wako Pure Chemical Corporation) were added to distilled water such that final concentrations were each 7 μM and 1 μM. The obtained solution was put in a spectroscopic measurement cell to measure the light-absorption/fluorescence characteristics. The excitation wavelength in fluorescence measurement was 530 nm.
Sample preparation and light absorption and fluorescence measurement were performed in the same manner as in Example 1 except that eosin Y (manufactured by FUJIFILM Wako Pure Chemical Corporation) was used instead of rose bengal as the xanthene dye, and that the excitation wavelength in fluorescence measurement was set to 500 nm. […]

[1] = molecular target: T2, horseradish peroxidase (HRP) (Armoracia rusticana, UniProt P00433); assay: Evaluation of aggregation state of heat-denatured horseradish peroxidase using light-absorption/fluorescence characteristics of rose bengal as index; details: HRP 5 μM, dye 1 μM, heat-stirred at 70° C., PBS pH 7.4
T2 construct: purchased FUJIFILM Wako Pure Chemical Corporation
T2 sequence (P00433 31-338): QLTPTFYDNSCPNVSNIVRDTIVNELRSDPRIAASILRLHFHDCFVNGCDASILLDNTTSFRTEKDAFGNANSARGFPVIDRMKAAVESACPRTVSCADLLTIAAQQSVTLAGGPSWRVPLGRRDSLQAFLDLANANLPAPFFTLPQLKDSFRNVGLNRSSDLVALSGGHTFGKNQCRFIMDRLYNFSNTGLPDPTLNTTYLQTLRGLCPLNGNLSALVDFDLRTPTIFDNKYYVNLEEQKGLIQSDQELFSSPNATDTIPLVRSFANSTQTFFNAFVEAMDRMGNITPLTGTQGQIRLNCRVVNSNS
Protocol: 40 mg of horseradish peroxidase (HRP, manufactured by FUJIFILM Wako Pure Chemical Corporation) was added to 2 mL of phosphate buffered saline at pH 7.4, and dissolved by being left to stand. The obtained HRP solution was heat-stirred at 200 rpm at 70° C. to cause heat denaturation of the HRP, thereby starting the aggregation reaction of the HRP. At 0, 5, 10, 15, 20, 25, 30, 35, 40, 50, 60, 70, 80, and 90 minutes after starting heat-stirring, each of 100 μL of the HRP solution was extracted and ice-cooled. The ice-cooled HRP solution, and rose bengal (manufactured by FUJIFILM Wako Pure Chemical Corporation) were added to distilled water such that final concentrations were each 5 μM and 1 μM. The obtained solution was put in a spectroscopic measurement cell to measure the light-absorption/fluorescence characteristics. The excitation wavelength in fluorescence measurement was 530 nm.

T1 sequence (P00698 19-147): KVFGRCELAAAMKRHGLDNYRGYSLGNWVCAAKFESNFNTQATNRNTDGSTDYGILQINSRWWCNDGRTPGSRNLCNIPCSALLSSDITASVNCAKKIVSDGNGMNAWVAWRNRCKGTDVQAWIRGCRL

| Structure (SMILES) | shape of the absorption spectra, maximum absorption wavelength and maximum absorbance versus heat denaturation time (lysozyme) | heat denaturation time at the minimum point of maximum absorbance (decreasing, thereafter increasing) ([1]; HRP absorption subtracted) | heat denaturation time at the minimum point of fluorescence intensity at around 570 nm and maximum fluorescence intensity (decreasing, thereafter increasing) ([1]; excitation 530 nm) |
| --- | --- | --- | --- |
| O.O=C([O-])c1ccccc1-c1c2cc(I)c(=O)c(I)c-2oc2c(I)c([O-])c(I)cc12.[Na+].[Na+] [erythrosin B] | changed depending on a heat denaturation time | – | – |
| O=C(O)c1c(Cl)c(Cl)c(Cl)c(Cl)c1-c1c2cc(I)c(=O)c(I)c-2oc2c(I)c(O)c(I)cc12 [rose bengal] | – | around 20 minutes | around 20 minutes |
